Test results published in publication PMC11785675, “Phase Ib study of the oral PI3Kδ inhibitor linperlisib in patients with advanced solid tumors” (International Journal of Clinical Oncology, 2024).

What was measured:
[1] = tested on: patients with advanced solid tumors; conditions: 80 mg/day oral;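 note: phase Ib open-label single-arm trial, once-daily dosing in 28-day cycles, adverse events graded by NCI CTCAE v5.0, recorded until at least 30 days post last dose, incidence as patient counts and percentages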
Experimental: This phase Ib, single-arm, open-label, multi-center clinical trial recruited patients with advanced or metastatic solid tumors from eight sites in China.
The main exclusion criteria included prior use of PI3K targeted agents and clinically symptomatic central nervous system metastasis or meningeal metastasis.
Patients received oral linperlisib 80 mg once per day, taken with warm water either 1 h prior to or 2 h after a meal every day, in a 28-day cycle. Dose adjustments, including holds and reductions, were mandated for grade 3/4 hematologic and grade 3 non-hematologic toxicity. Treatment with linperlisib continued until disease progression, intolerable toxicity, withdrawal of informed consent, death or any other conditions deemed by the investigator to warrant drug discontinuation.
Physical examination, assessment of ECOG performance status, clinical laboratory evaluations, electrocardiogram, and other safety evaluations were conducted to assess safety. AEs were graded according to the National Cancer Institute Common Terminology Criteria for Adverse Events (CTCAE), Version 5.0. All AEs were recorded from the time of signing the informed consent to at least 30 days after the last dose, and were followed until resolution or stabilization. Patients underwent radiographic assessments every 8 weeks by enhanced computed tomography or magnetic resonance imaging according to RECIST 1.1.
The primary endpoint was safety as assessed by monitoring the frequency, duration, and severity of AEs. Secondary endpoints were efficacy endpoints, including ORR, DCR, and progression-free survival (PFS).
Baseline data are presented descriptively. ORR is determined by the proportion of patients who achieve a confirmed complete response (CR) or partial response (PR) as the best overall response, and is presented with CIs. PFS and overall survival (OS) curves are generated using the Kaplan–Meier method. The incidence of AEs and serious AEs (SAEs) are reported as numbers and percentages.

[2] = Phase Ib trial: pharmacokinetics of linperlisib 80 mg once daily; type: in vivo, human
Experimental: Pharmacokinetic analysis included the first 13 patients enrolled in this study who received linperlisib at 80 mg once daily.

COc1ncc(-c2nc(N3CCOCC3)nc3c(CN4CCC(C(C)(C)O)CC4)cc(F)cc23)cc1NS(C)(=O)=O [linperlisib]
Patients with at least one TEAE ([1]; 94 patients): 97.9%
Patients with at least one treatment-related AE (TRAE) ([1]; 94 patients): 89.4%
Patients with dose reduction (elevated γ-glutamyltransferase and diarrhea) ([1]; 94 patients): 2.1%
TEAE abdominal pain, all grades ([1]; 94 patients): 11 (11.7) n (%)
TEAE abdominal pain, grade ≥ 3 ([1]; 94 patients): 1 (1.1) n (%)
TEAE anemia, all grades ([1]; 94 patients): 20 (21.3) n (%)
TEAE anemia, all grades irrespective of causality ([1]; 94 patients): 21.3%
TEAE anemia, grade ≥ 3 ([1]; 94 patients): 3 (3.2) n (%)
TEAE asthenia, all grades ([1]; 94 patients): 15 (16.0) n (%)
TEAE asthenia, grade ≥ 3 ([1]; 94 patients): 0 n (%)
TEAE decreased appetite, all grades ([1]; 94 patients): 24 (25.5) n (%)
TEAE decreased appetite, all grades irrespective of causality ([1]; 94 patients): 25.5%
TEAE decreased appetite, grade ≥ 3 ([1]; 94 patients): 1 (1.1) n (%)
TEAE diarrhea, all grades ([1]; 94 patients): 11 (11.7) n (%)
TEAE diarrhea, grade ≥ 3 ([1]; 94 patients): 4 (4.3) n (%)
TEAE elevated γ-glutamyltransferase, all grades ([1]; 94 patients): 18 (19.1) n (%)
TEAE elevated γ-glutamyltransferase, grade ≥ 3 ([1]; 94 patients): 2 (2.1) n (%)
TEAE hypercholesterolemia, all grades ([1]; 94 patients): 12 (12.8) n (%)
TEAE hypercholesterolemia, grade ≥ 3 ([1]; 94 patients): 1 (1.1) n (%)
TEAE hypertriglyceridemia, all grades ([1]; 94 patients): 10 (10.6) n (%)
TEAE hypertriglyceridemia, grade ≥ 3 ([1]; 94 patients): 0 n (%)
TEAE hypoalbuminemia, all grades ([1]; 94 patients): 15 (16.0) n (%)
TEAE hypoalbuminemia, grade ≥ 3 ([1]; 94 patients): 0 n (%)
TEAE hyponatremia, all grades ([1]; 94 patients): 15 (16.0) n (%)
TEAE hyponatremia, grade ≥ 3 ([1]; 94 patients): 1 (1.1) n (%)
TEAE increased ALT, all grades ([1]; 94 patients): 21 (22.3) n (%)
TEAE increased ALT, all grades irrespective of causality ([1]; 94 patients): 22.3%
TEAE increased ALT, grade ≥ 3 ([1]; 94 patients): 3 (3.2) n (%)
TEAE increased AST, all grades ([1]; 94 patients): 25 (26.6) n (%)
TEAE increased AST, all grades irrespective of causality ([1]; 94 patients): 26.6%
TEAE increased AST, grade ≥ 3 ([1]; 94 patients): 3 (3.2) n (%)
TEAE increased blood alkaline phosphatase, all grades ([1]; 94 patients): 15 (16.0) n (%)
TEAE increased blood alkaline phosphatase, grade ≥ 3 ([1]; 94 patients): 3 (3.2) n (%)
TEAE increased blood bilirubin, all grades ([1]; 94 patients): 16 (17.0) n (%)
TEAE increased blood bilirubin, grade ≥ 3 ([1]; 94 patients): 1 (1.1) n (%)
TEAE increased blood creatinine, all grades ([1]; 94 patients): 18 (19.1) n (%)
TEAE increased blood creatinine, grade ≥ 3 ([1]; 94 patients): 2 (2.1) n (%)
TEAE increased blood lactate dehydrogenase, all grades ([1]; 94 patients): 13 (13.8) n (%)
TEAE increased blood lactate dehydrogenase, grade ≥ 3 ([1]; 94 patients): 0 n (%)
TEAE leukopenia, all grades ([1]; 94 patients): 16 (17.0) n (%)
TEAE leukopenia, grade ≥ 3 ([1]; 94 patients): 1 (1.1) n (%)
TEAE nausea, all grades ([1]; 94 patients): 16 (17.0) n (%)
TEAE nausea, grade ≥ 3 ([1]; 94 patients): 0 n (%)
TEAE neutropenia, all grades ([1]; 94 patients): 13 (13.8) n (%)
TEAE neutropenia, grade ≥ 3 ([1]; 94 patients): 3 (3.2) n (%)
TEAE protein urine present, all grades ([1]; 94 patients): 10 (10.6) n (%)
TEAE protein urine present, grade ≥ 3 ([1]; 94 patients): 0 n (%)
TEAE proteinuria, all grades ([1]; 94 patients): 25 (26.6) n (%)
TEAE proteinuria, all grades irrespective of causality ([1]; 94 patients): 26.6%
TEAE proteinuria, grade ≥ 3 ([1]; 94 patients): 0 n (%)
TEAE pyrexia, all grades ([1]; 94 patients): 10 (10.6) n (%)
TEAE pyrexia, grade ≥ 3 ([1]; 94 patients): 0 n (%)
TEAE rash, all grades ([1]; 94 patients): 14 (14.9) n (%)
TEAE rash, grade ≥ 3 ([1]; 94 patients): 2 (2.1) n (%)
TEAE vomiting, all grades ([1]; 94 patients): 15 (16.0) n (%)
TEAE vomiting, grade ≥ 3 ([1]; 94 patients): 2 (2.1) n (%)
TEAE weight loss, all grades ([1]; 94 patients): 20 (21.3) n (%)
TEAE weight loss, all grades irrespective of causality ([1]; 94 patients): 21.3%
TEAE weight loss, grade ≥ 3 ([1]; 94 patients): 0 n (%)
TRAE decreased appetite ([1]; 94 patients): 18.1%
TRAE elevated γ-glutamyltransferase ([1]; 94 patients): 16.0%
TRAE increased ALT ([1]; 94 patients): 18.1%
TRAE increased AST ([1]; 94 patients): 22.3%
TRAE proteinuria ([1]; 94 patients): 21.3%
TRAEs leading to death ([1]; 94 patients): No TRAEs leading to death were reported
Patients with SAEs of grade 3 or greater ([1]; 94 patients, 29 SAEs): 27.7%
Patients who discontinued treatment due to AEs ([1]; 94 patients, data cutoff April 03, 2023): 21.3%
Patients with SAEs ([1]; 94 patients, thirty-five SAEs): 30.9%
Incidence of hyperglycemia related to linperlisib ([1]; all grades): 2.1%
Incidence of diarrhea, colitis, and hepatotoxicity ([1]; compared with other PI3K inhibitors): very low
Accumulation after multiple administrations ([2]; 80 mg once daily): no accumulation was observed
Trough levels ([2]; 80 mg once daily, cycle 1, day 7, range 68.4–232): 167.7 ng/mL
Accumulation after multiple administrations ([2]; 80 mg once daily, listed as Linperlisib): no accumulation is observed
Absorption after a single dose ([2]; 80 mg oral): rapidly absorbed
Vd/F ([2]; human, plasma, single dose oral 80 mg qd, n = 13, read-out: Vz/F, mean (SD)): 251 L
AUC(0-t) ([2]; human, single dose oral 80 mg qd, n = 13, plasma, read-out: AUC0-24, mean (SD)): 4920 ng·h/mL
AUC(0-inf) ([2]; human, single dose oral 80 mg qd, n = 13, plasma, read-out: AUC0-∞, mean (SD)): 7260 ng·h/mL
Cmax ([2]; human, single dose oral 80 mg qd, n = 13, plasma, read-out: Cmax, mean (SD)): 364 ng/mL
MRT ([2]; human, single dose oral 80 mg qd, n = 13, plasma, read-out: MRT, median (range)): 18.9 h
half-life ([2]; human, single dose oral 80 mg qd, n = 13, plasma, read-out: T1/2, mean (SD) (converted)): 14.3 h
Tmax ([2]; human, single dose oral 80 mg qd, n = 13, plasma, read-out: Tmax, median (range)): 3.9 h
CL/F, mean (SD) ([2]; single dose oral 80 mg qd, n = 13): 13.5 (4.9) L/h
